Reference: patent US6762186B2, “Substituted imidazoles as dual histamine H1 and H3 agonists or antagonists” (Schering Corporation, priority 2000, dated 2004)

How the values were obtained:
[1] = target: T1, H3 receptors (Cavia porcellus, UniProt Q9JI35); assay: H3-Receptor Binding Assay ([3H]R-α-methyl histamine or [3H]Nα-methyl histamine, guinea pig brain membranes); settings: for Ki: HCl salt of the indicated compounds; for inhibition at 2 µg/mL: final concentration 2 μg/ml, HCl salt
T1 construct: The source of the H3 receptors in this experiment was guinea pig brain; from tissue; host or cells: guinea pig brain membranes
T1 sequence (Q9JI35 whole entry): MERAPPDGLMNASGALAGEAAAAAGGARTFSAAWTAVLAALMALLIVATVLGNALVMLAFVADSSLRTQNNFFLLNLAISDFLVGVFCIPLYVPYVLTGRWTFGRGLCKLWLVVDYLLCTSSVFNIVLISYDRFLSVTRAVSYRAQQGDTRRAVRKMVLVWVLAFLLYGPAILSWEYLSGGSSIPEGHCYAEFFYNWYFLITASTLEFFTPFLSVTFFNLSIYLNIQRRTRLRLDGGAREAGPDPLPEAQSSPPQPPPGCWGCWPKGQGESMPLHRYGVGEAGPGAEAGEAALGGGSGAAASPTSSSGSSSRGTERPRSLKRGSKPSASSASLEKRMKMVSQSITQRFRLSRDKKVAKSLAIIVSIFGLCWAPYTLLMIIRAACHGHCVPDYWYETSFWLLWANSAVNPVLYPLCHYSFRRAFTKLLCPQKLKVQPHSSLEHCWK
Procedure: General Procedure for H3-Receptor Binding Assay
The source of the H3 receptors in this experiment was guinea pig brain. The animals weighed 400-600 g. The brain tissue was homogenized with a solution of 50 mM Tris, pH 7.5. The final concentration of tissue in the homogenization buffer was 10% w/v. The homogenates were centrifuged at 1,000×g for 10 min. in order to remove clumps of tissue and debris. The resulting supernatants were then centrifuged at 50,000×g for 20 min. in order to sediment the membranes, which were next washed three times in homogenization buffer (50,000×g for 20 min. each). The membranes were frozen and stored at −70° C. until needed.
All compounds to be tested were dissolved in DMSO and then diluted into the binding buffer (50 mM Tris, pH 7.5) such that the final concentration was 2 μg/ml with 0.1% DMSO. Membranes were then added (400 μg of protein) to the reaction tubes. The reaction was started by the addition of 3 nM [^3H]R-α-methyl histamine (8.8 Ci/mmol) or 3 nM [^3H]N^α-methyl histamine (80 Ci/mmol) and continued under incubation at 30° C. for 30 min. Bound ligand was separated from unbound ligand by filtration, and the amount of radioactive ligand bound to the membranes was quantitated by liquid scintillation spectrometry. All incubations were performed in duplicate and the standard error was always less than 10%. Compounds that inhibited more than 70% of the specific binding of radioactive ligand to the receptor were serially diluted to determine a Ki (nM). The results are given in Table 1 for the HCl salt of the indicated compounds.

[2] = target: T2, histamine H1 receptor (Rattus norvegicus, UniProt P31390); assay: H1-Receptor Binding Assay ([3H]pyrilamine, rat brain membranes); settings: for inhibition at 1 µg/mL: HCl salt; for Ki: Cheng-Prusoff from IC50, HCl salt
T2 construct: The tissue source was male Sprague-Dawley rat brain; tissue Rockland Corporation, Gilbertsville, Pa; host or cells: male Sprague-Dawley rat brain membranes
T2 sequence (P31390 whole entry): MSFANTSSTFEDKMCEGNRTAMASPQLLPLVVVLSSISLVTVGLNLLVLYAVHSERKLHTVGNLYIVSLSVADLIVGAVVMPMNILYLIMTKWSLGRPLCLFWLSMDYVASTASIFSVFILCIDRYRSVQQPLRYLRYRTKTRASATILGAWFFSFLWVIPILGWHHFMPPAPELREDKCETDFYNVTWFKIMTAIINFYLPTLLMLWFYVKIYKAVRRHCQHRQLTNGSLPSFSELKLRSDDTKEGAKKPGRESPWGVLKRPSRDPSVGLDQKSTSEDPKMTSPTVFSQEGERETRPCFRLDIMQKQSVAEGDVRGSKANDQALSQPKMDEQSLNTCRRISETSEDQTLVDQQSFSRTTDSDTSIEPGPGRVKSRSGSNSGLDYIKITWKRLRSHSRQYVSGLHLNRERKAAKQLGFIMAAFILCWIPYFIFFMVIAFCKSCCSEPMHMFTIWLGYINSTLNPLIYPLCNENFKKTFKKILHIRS
Excerpt: General Procedure for H1-Receptor Binding Assay
The procedure used was based on that disclosed in V. T. Tran et al, “Histamine H1 receptors identified in mammalian brain membranes with [H-3]mepyramine”, Proc. Natl. Acad. Sci. U.S.A. 75 (1978) 6290-6294.
I. Tissue preparation protocol for histamine H1 receptor binding assay:
1. The tissue source was male Sprague-Dawley rat brain. These were purchased stripped and frozen (available from Rockland Corporation, Gilbertsville, Pa.). The buffer used was ice-cold 50 mM Tris-HCl, pH 7.5. (The pH was determined at 25° C.)
2. The brains were spread out on plastic wrap on the benchtop and allowed to thaw for 10-15 min. After this, everything was kept ice-cold.
3. Two brains were put in each 50 ml round bottom centrifuge tube and 25 ml of buffer was added. Then they were broken up with a Polytron (from Brinkmann Instruments, Westbury, N.Y.) equipped with a PT-10 tip at setting 6 for 30 sec.
4. The volume in the tube was brought up to 45 ml and mixed and the particulate material was centrifuged at 1000×g (3000 rpm, SS-34 rotor) for 10 min to remove nuclei and unbroken cells.
5. Pellets were discarded and the supernatants were centrifuged 10 min at 50,000×g (20,000 rpm, SS-34 rotor).
6. The high-speed pellets were resuspended in a volume of Tris buffer equal to the original ([…]), the contents of all tubes were pooled, and a sample was taken for BCA protein assay. The material was aliquotted, 45 ml per round-bottom tube, and the resuspension was recentrifuged. The yield of protein was approximately 20 mg/brain, so there was about 40 mg of protein per tube.
7. Pellets were frozen at −80° C.
II. H1 Histamine receptor binding assay:
1. The compounds for assay were independently solubilized at 1 mg/ml DMSO by vortexing, or if necessary by sonication. The first dilution, 100-fold, was made in 50 mM Tris-HCl, pH 7.5, at room temperature. The three or four subsequent ten-fold serial dilutions were made in 1% DMSO/50 mM Tris-HCl, pH 7.5. Drug solutions and assay plates were kept at room temperature during the course of the assay set up.
2. Test compounds were assayed at four or five concentrations: 1, 0.1, 0.01, 0.001, and 0.0001 μg/ml. Twenty μl of drug solution was pipeted into each of three wells.
3. [^3H]Pyrilamine was diluted approximately 2000-fold with ice-cold […] Tris-HCl, pH 7.5 (to a working concentration of 20-25 nM), and put on ice.
4. A frozen tissue pellet was thawed in a 25° C. water bath, resuspended in 50 mM Tris-HCl, pH 7.5, at 1.7-2 mg/ml by brief break-up on the Polytron, and put on ice.
5. Twenty μl of diluted [^3H]pyrilamine was added to each well.
6. One hundred fifty μl of tissue suspension was added to each well.
7. The top of the plate was covered and it was placed in a 25° C. shaking water bath (about 60 oscillations/min) for 30 min.
8. Samples were filtered on a Tomtec Mach 2 harvester (available from Tomtec Corporation, Orange, Conn.) through a GF/B filter mat (from Wallac, Inc., Gaithersburg, Md.) presoaked in 0.3% polyethylenimine. Each sample was thrice washed with ice-cold 50 mM Tris-HCl, pH 7.5 dried 20 sec on the Tomtec, and dried 3-4 min in a microwave oven on a paper towel. The filter was impregnated with MELTILEX brand wax scintillant (from Wallac Corporation) and counted on a Betaplate scintillation counter (from Wallac Corporation).
9. Specific binding was determined as the difference between total and nonspecific binding. The percent inhibition in the presence of inhibitor or standard was determined using the formula:
[1-(sample binding-nonspecific binding)/specific binding]×100
For compounds that inhibit more than 50% at 1 μg/ml, an IC50 value was interpolated from proximate concentrations. […]

Structure (SMILES) | Ki [1] [nM] | inhibition at 1 µg/mL [2] [%] | Ki [2] [nM] | inhibition at 2 µg/mL [1] [%]
Clc1ccc(C(CN2CCC(CCc3c[nH]cn3)C2)c2ccc(Cl)cc2)cc1 (stereo not shown) | 25 | 18 |  | 
Clc1ccc(C(c2ccccn2)N2CCN(CCCc3c[nH]cn3)CC2)cc1 (stereo not shown) | 66 |  | 40 | 
Clc1ccc(C(c2ccccc2)N2CCN(Cc3c[nH]cn3)CC2)cc1 (stereo not shown) | 101 |  | 1.7 | 
O=C(CC(c1ccc(Cl)cc1)c1ccccn1)N1CCN(CCCCc2c[nH]cn2)CC1 (stereo not shown) | 32 | 14 |  | 
O=C(COCCN1CCN(C(c2ccccc2)c2ccc(Cl)cc2)CC1)NCCCCc1c[nH]cn1 (stereo not shown) | 39 |  | 11 | 
Clc1ccc(C(=C2CCN(CCCCCc3c[nH]cn3)CC2)c2ccccn2)cc1 | 8 |  | 4.5 | 
O=C(CC(c1ccccc1)c1ccccc1)N1CCN(Cc2c[nH]cn2)CC1 |  |  |  | 15
c1ccc(C(CCN2CCN(Cc3c[nH]cn3)CC2)c2ccccc2)cc1 |  |  | 80 | 62
O=C(C(c1ccccc1)c1ccccc1)N1CCC(Cc2c[nH]cn2)CC1 | 66 |  | 50 | 
Clc1ccc(C(CCN2CCN(CCCCc3c[nH]cn3)CC2)c2ccccn2)cc1 (stereo not shown) | 7 |  | 21 | 
O=C(CC(c1ccc(Cl)cc1)c1ccccn1)N1CCC(Cc2c[nH]cn2)CC1 (stereo not shown) | 0.3 |  | 19 | 
Clc1ccc(C(c2ccccn2)N2CCN(CCCCc3c[nH]cn3)CC2)cc1 (stereo not shown) | 39 |  | 5 | 
Clc1ccc(C(c2ccccn2)N2CCN(CCCCCCCNCCCCc3c[nH]cn3)CC2)cc1 (stereo not shown) | 21 |  | 18.5 | 
Clc1ccc(C(=C2CCN(CCCCCCc3c[nH]cn3)CC2)c2ccccn2)cc1 | 11 |  | 3 | 
Clc1ccc(C(=C2CCN(CCCCc3c[nH]cn3)CC2)c2ccccn2)cc1 | 3 |  | 4.5 | 
c1ccc(C(c2ccccc2)C2CCN(CCCCCc3c[nH]cn3)CC2)cc1 | 19 |  | 28 | 
Clc1ccc(C(CCN2CCN(Cc3c[nH]cn3)CC2)c2ccccn2)cc1 (stereo not shown) | 130 |  | 25 | 
Clc1ccc(C(c2ccccn2)N2CCN(Cc3c[nH]cn3)CC2)cc1 (stereo not shown) | 73 |  | 5 | 
O=C(C(c1ccc(Cl)cc1)c1ccc(Cl)cc1)N1CCC(CCc2c[nH]cn2)C1 (stereo not shown) | 9.5 | 2 |  | 
